Laboratory results: the supplement of paper PMC10307832

Legend:
Assay in all cases: relative viability (nuclei count vs DMSO), 5 days (fraction); higher = more cells survive
[1] = compound: O=c1ncccn1[C@@H]1O[C@H](CO)[C@@H](O)[C@H]1O [Zebularine] + Cc1nc(Nc2ncc(C(=O)Nc3c(C)cccc3Cl)s2)cc(N2CCN(CCO)CC2)n1 [Dasatinib] (partner 0.075 µM)
Summary of the method: (§1)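 Relative viability divides the nuclei count in treated wells by that in vehicle wells. Lung cancer cell lines were seeded in 1536-well plates, dosed by pin tool the next day, and fixed and stained after 5 days in one step with final 0.05% Triton X-100, 1% formaldehyde and 1 ug/ml Hoechst. Dosing was a single drug or a fixed anchor-drug dose plus five library-drug doses (not always all listed) in √10 steps, and values are medians of duplicate plates imaged at 4×.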

[2] = compound: CC(C)CCN1c2nc(Nc3cc(F)c(O)c(F)c3)ncc2N(C)C(=O)C1C [BI-D1870] + Nc1ncn([C@H]2C[C@H](O)[C@@H](CO)O2)c(=O)n1 [Decitabine] (partner 2 µM)
Summary of the method: as §1

[3] = compound: O=c1ncccn1[C@@H]1O[C@H](CO)[C@@H](O)[C@H]1O [Zebularine] + CCNC(=O)c1noc(-c2cc(C(C)C)c(O)cc2O)c1-c1ccc(CN2CCOCC2)cc1 [Luminespib] (partner 0.01 µM)
Summary of the method: as §1

[4] = compound: CC(C)CCN1c2nc(Nc3cc(F)c(O)c(F)c3)ncc2N(C)C(=O)C1C [BI-D1870] + CC(C)C[C@H](NC(=O)[C@H](Cc1ccccc1)NC(=O)c1cnccn1)B(O)O [Bortezomib] (partner 0.002 µM)
Summary of the method: as §1

Cell Line | relative viability ([1]; first compound 1 µM) | relative viability ([1]; first compound 3.162 µM) | relative viability ([1]; first compound 10 µM) | relative viability ([1]; first compound 31.62 µM) | relative viability ([1]; first compound 100 µM) | relative viability ([2]; first compound 0.04 µM) | relative viability ([2]; first compound 0.1265 µM) | relative viability ([2]; first compound 0.4 µM) | relative viability ([2]; first compound 1.265 µM) | relative viability ([2]; first compound 4 µM) | relative viability ([3]; first compound 1 µM) | relative viability ([3]; first compound 3.162 µM) | relative viability ([3]; first compound 10 µM) | relative viability ([3]; first compound 31.62 µM) | relative viability ([3]; first compound 100 µM) | relative viability ([4]; first compound 0.04 µM) | relative viability ([4]; first compound 0.1265 µM) | relative viability ([4]; first compound 0.4 µM) | relative viability ([4]; first compound 1.265 µM) | relative viability ([4]; first compound 4 µM)
HCC-15 | 0.759 | 0.577 | 0.494 | 0.486 | 0.27 | 0.674 | 0.623 | 0.627 | 0.72 | 0.465 | 0.297 | 0.337 | 0.211 | 0.34 | 0.216 | 1.03 | 1.01 | 0.922 | 1.04 | 0.863
HCC-827 | 0.3 | 0.292 | 0.249 | 0.322 | 0.238 | 0.333 | 0.322 | 0.306 | 0.365 | 0.402 | 0.756 | 0.909 | 0.353 | 0.582 | 0.257 | 1.14 | 1.1 | 0.985 | 1.03 | 1.12
HOP-62 | 0.729 | 0.711 | 0.421 | 0.462 | 0.253 | 0.212 | 0.241 | 0.208 | 0.198 | 0.314 | 0.991 | 0.906 | 0.263 | 0.296 | 0.178 | 0.74 | 0.812 | 0.809 | 0.803 | 0.456
LC-2-ad | 0.731 | 0.494 | 0.226 | 0.491 | 0.34 | 0.834 | 0.72 | 0.842 | 0.893 | 0.791 | 1.02 | 1.01 | 0.699 | 0.73 | 0.541 | 1.11 | 0.921 | 0.999 | 1.04 | 0.953
LCLC-97TM1 | 0.868 | 0.844 | 0.509 | 0.577 | 0.315 | 0.236 | 0.231 | 0.209 | 0.255 | 0.262 | 0.806 | 0.777 | 0.427 | 0.241 | 0.21 | 0.833 | 0.693 | 0.734 | 0.957 | 0.372
LCLC-103H | 0.485 | 0.479 | 0.251 | 0.475 | 0.44 | 0.706 | 0.588 | 0.723 | 0.804 | 0.678 | 1.07 | 0.996 | 0.696 | 0.705 | 0.475 | 1.28 | 1.09 | 1.06 | 1.17 | 1.06
LOU-NH91 | 0.569 | 0.595 | 0.553 | 0.571 | 0.473 | 0.876 | 0.8 | 0.792 | 0.821 | 0.629 | 0.332 | 0.33 | 0.479 | 0.298 | 0.3 | 0.485 | 0.465 | 0.451 | 0.484 | 0.466
LU99A | 0.722 | 0.523 | 0.44 | 0.325 | 0.116 | 0.883 | 0.814 | 0.898 | 0.837 | 0.725 | 0.221 | 0.269 | 0.166 | 0.188 | 0.146 | 1.34 | 1.03 | 1.12 | 1.06 | 1.02
